Assay [1] concerns p21 promoter-luciferase construct. Description: p21 reporter gene induction (HeLa cells, p21 promoter-luciferase construct).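 For all read-outs here: transfected HeLa cells exposed to compound for 15 h, luciferase luminescence read from lysates, p21 promoter lacks p53 site, proxy for cellular HDAC1/2/3 inhibition.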 As to conditions: for p21 RP3: relative gene level of p21 compared to MS275 at 3 μM; for p21 RP10: relative level of p21 compared to MS275 at 10 μM; for p21 RP30: relative level of p21 compared to MS275 at 30 μM. A general note: Reporter assays use an easily measured gene product as a stand-in for the process of interest.

Another assay deals with T1, HDAC6 (Homo sapiens, UniProt Q9UBN7).
T1 construct: endogenous in cells; host or cells: A549 cells
T1 sequence (Q9UBN7 1-1215): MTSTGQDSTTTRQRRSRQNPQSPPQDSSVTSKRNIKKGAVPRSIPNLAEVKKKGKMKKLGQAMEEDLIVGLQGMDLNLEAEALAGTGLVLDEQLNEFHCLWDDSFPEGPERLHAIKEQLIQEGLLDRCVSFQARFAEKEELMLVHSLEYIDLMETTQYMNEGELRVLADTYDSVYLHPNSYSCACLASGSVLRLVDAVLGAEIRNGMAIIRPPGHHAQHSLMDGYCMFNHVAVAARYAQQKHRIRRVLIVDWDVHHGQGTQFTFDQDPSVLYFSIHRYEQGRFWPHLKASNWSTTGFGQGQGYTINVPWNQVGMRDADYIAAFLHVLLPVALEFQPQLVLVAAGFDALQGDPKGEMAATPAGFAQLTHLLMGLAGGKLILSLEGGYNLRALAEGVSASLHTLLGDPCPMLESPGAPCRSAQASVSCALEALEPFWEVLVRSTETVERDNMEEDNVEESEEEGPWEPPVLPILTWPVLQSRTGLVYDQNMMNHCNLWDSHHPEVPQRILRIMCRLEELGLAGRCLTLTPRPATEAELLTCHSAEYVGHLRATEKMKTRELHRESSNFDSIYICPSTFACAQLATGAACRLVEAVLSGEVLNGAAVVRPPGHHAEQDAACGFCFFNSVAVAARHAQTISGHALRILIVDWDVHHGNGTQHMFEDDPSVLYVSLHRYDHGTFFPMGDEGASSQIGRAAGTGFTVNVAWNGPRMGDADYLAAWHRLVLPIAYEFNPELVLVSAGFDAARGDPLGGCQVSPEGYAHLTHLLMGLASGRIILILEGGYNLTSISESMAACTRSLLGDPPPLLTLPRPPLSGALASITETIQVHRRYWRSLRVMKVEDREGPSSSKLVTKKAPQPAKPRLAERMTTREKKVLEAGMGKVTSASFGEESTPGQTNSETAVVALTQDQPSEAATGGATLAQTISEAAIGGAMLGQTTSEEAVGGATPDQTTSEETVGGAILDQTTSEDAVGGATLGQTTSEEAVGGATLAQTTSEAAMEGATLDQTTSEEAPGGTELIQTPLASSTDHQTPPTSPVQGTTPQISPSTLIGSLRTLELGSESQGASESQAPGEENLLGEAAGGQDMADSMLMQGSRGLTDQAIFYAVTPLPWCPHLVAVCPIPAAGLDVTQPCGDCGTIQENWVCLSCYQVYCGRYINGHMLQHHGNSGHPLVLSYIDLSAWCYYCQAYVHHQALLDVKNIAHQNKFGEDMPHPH
The experiment in a line: Tubulin acetylation cytoblot assay (A549 cells). The class given is cell-based. The following applies: 17-18 h incubation, tubulin acetylation as marker of HDAC6 inhibition, read-out: Tub-Ac EC50. The method, boiled down: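 Cells were exposed to compound for 17-18 h, then fixed with formaldehyde and permeabilized with cold MeOH. They were probed for 4 h at 4° C with anti-acetylated tubulin plus HRP anti-mouse IgG (each 1:750), and read by ECL luminescence. EC50 values came from curves normalized to top and bottom controls.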

The next assay deals with T2, recombinant human HDAC8 (Homo sapiens, UniProt Q9BY41).
T2 construct: made in house; host or cells: insect cells
T2 sequence (Q9BY41 1-377): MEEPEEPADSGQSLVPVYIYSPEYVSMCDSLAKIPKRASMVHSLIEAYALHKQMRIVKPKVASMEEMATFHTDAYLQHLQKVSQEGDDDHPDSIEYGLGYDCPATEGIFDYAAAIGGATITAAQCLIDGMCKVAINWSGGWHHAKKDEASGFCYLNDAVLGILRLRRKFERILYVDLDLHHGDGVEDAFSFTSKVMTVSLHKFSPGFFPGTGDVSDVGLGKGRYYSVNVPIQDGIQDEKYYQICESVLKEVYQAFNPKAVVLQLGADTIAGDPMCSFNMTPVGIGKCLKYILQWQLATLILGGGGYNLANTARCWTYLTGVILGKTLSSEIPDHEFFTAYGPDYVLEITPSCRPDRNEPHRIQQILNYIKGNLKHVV
Description: HDAC8 inhibition: recombinant HDAC8 fluorometric assay. It counts as biochemical. The following applies: recombinant human HDAC8, substrate Ac-Arg-His-Lys-Lys(ε-acetyl)-AMC; read-out: HDAC8 IC50. The gist of the method:
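Recombinant human HDAC8 from insect cells was preincubated with compound for 15 min at rt, then given Ac-Arg-His-Lys-Lys(ε-acetyl)-AMC substrate for 30 min at rt. IC50 came from normalized percent inhibition with curve fitting.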

With `O=C(NO)c1ccc(NC2CCN(C3CCCCC3)C2=O)cc1` (centres unmarked) [Example 41, 4-(1-Cyclohexyl-2-oxo-pyrrolidin-3-ylamino)-N-hydroxy-benzamide], in assay [1], the “p21 RP3” value came out at 0.05, the “p21 RP10” value worked out at 0.02 and the “p21 RP30” value is reported as 0.02. Besides, on HDAC6, the EC50 (commonly the midpoint of the concentration-response curve) was found to be 5.15 µM. Moreover, the IC50 (commonly the concentration at which inhibition is half-maximal) at recombinant human HDAC8 was determined as 0.84 µM.

Consider `O=C(NO)c1ccc(NC2CCN(Cc3ccccc3)C2=O)cc1` (centres unmarked) [Example 42], for which, in assay [1], the “p21 RP3” value amounted to 0.02, the “p21 RP10” value was 0.09 and the “p21 RP30” value is listed as 0.34. Moreover, the EC50 at HDAC6 amounted to 11.4 µM. The IC50 on recombinant human HDAC8 turned out to be 0.65 µM.

For `C[C@H](c1ccccc1)N1CCC(Nc2ccc(C(=O)NO)cc2)C1=O` (some centres unmarked) [Example 44], in assay [1], the “p21 RP3” value is listed as −0.10, the “p21 RP10” value stood at 0.03 and the “p21 RP30” value is listed as 0.10. Further, on HDAC6, the EC50 came out at 6.31 µM. Further, the IC50 on recombinant human HDAC8 is 0.7 µM.

With `C[C@H](c1ccccc1)N1CCC(Nc2ccc(C(=O)NO)cc2)C1=O` (some centres unmarked) [Example 45], in assay [1], the “p21 RP3” value is listed as −0.19, the “p21 RP10” value was 0.02 and the “p21 RP30” value is 0.13. Further, at HDAC6, the EC50 was found to be 8.3 µM. In addition, at recombinant human HDAC8, the IC50 amounted to 0.65 µM.

Regarding `CC(C)(c1ccccc1Cl)N1CCC(Nc2ccc(C(=O)NO)cc2)C1=O` (centres unmarked) [Example 48, 4-{1-[1-(2-Chloro-phenyl)-1-methyl-ethyl]-2-oxo-pyrrolidin-3-ylamino}-N-hydroxy-benzamide], in assay [1], the “p21 RP3” value is 0.24, the “p21 RP10” value is 0.08 and the “p21 RP30” value is 0.23. Besides, on HDAC6, the EC50 amounted to 4.6 µM. The IC50 at recombinant human HDAC8 stood at 0.68 µM.

With `CC(C)(c1cccc(Cl)c1)N1CCC(Nc2ccc(C(=O)NO)cc2)C1=O` (centres unmarked) [Example 49, 4-{1-[1-(3-Chloro-phenyl)-1-methyl-ethyl]-2-oxo-pyrrolidin-3-ylamino}-N-hydroxy-benzamide], in assay [1], the “p21 RP3” value was 0.41, the “p21 RP10” value was 0.50 and the “p21 RP30” value amounted to 0.85. The EC50 at HDAC6 was 9.86 µM. For the same compound, the IC50 on recombinant human HDAC8 was 0.49 µM.

Turning to `CC(C)(c1ccc(Cl)cc1)N1CCC(Nc2ccc(C(=O)NO)cc2)C1=O` (centres unmarked) [Example 50, 4-{1-[1-(4-Chloro-phenyl)-1-methyl-ethyl]-2-oxo-pyrrolidin-3-ylamino}-N-hydroxy-benzamide], in assay [1], the “p21 RP3” value was found to be 0.17, the “p21 RP10” value is on record as 0.17 and the “p21 RP30” value was determined as 0.53. For the same compound, on HDAC6, the EC50 worked out at 8.62 µM. For the same compound, on recombinant human HDAC8, the IC50 worked out at 0.67 µM.

With `CC(C)(c1ccc(-c2ccccc2)cc1)N1CCC(Nc2ccc(C(=O)NO)cc2)C1=O` (centres unmarked) [Example 51, 4-[1-(1-Biphenyl-4-yl-1-methyl-ethyl)-2-oxo-pyrrolidin-3-ylamino]-N-hydroxy-benzamide], in assay [1], the “p21 RP3” value is on record as −0.14, the “p21 RP10” value is reported as 0.60 and the “p21 RP30” value was determined as 0.38. For the same compound, the EC50 on HDAC6 amounted to 8.99 µM. In addition, on recombinant human HDAC8, the IC50 stood at 0.91 µM.

As for `CC(C)(c1cccc2ccccc12)N1CCC(Nc2ccc(C(=O)NO)cc2)C1=O` (centres unmarked) [Example 52, N-Hydroxy-4-[1-(1-methyl-1-naphthalen-1-yl-ethyl)-2-oxo-pyrrolidin-3-ylamino]-benzamide], in assay [1], the “p21 RP3” value is given as 0.14, the “p21 RP10” value is on record as 0.53 and the “p21 RP30” value was found to be 0.58. For the same compound, the EC50 on HDAC6 is 2.82 µM. The IC50 at recombinant human HDAC8 was determined as 1.05 µM.

Turning to `CC(C)(c1ccc2ccccc2c1)N1CCC(Nc2ccc(C(=O)NO)cc2)C1=O` (centres unmarked) [Example 53, N-Hydroxy-4-[1-(1-methyl-1-naphthalen-2-yl-ethyl)-2-oxo-pyrrolidin-3-ylamino]-benzamide], in assay [1], the “p21 RP3” value came out at 2.37, the “p21 RP10” value is listed as 1.21 and the “p21 RP30” value stood at 0.13. On HDAC6, the EC50 came to 3.32 µM. Also, at recombinant human HDAC8, the IC50 was 0.38 µM.

The values are drawn from patent publication US8404738B2 (Hoffmann-La Roche Inc., priority 2011, dated 2013).
